Source: patent US12642838B2, “Method of modulating sensitivity to tyrosine kinase inhibitor” (SINGAPORE HEALTH SERVICES PTE LTD, priority 2020, dated 2026)

How the values were obtained:
NCC-HN1 cells = test: Cell proliferation assay (CellTitre-Glo), TKI and EV co-treatment, NCC-HN1; type: cell-based, human
Method: Extracellular vesicle (EV) collection and isolation were carried out as previously described*. Briefly, cells were grown in T-175 tissue culture flasks with conditioning medium (NCM). After 72 hours incubation, the NCM was collected and spun down at 1,200 rpm for 10 minutes to remove cell debris. The supernatant was then filtered through a 0.22 um filter (PES) and the filtrate was loaded into Amicon® Ultra-15 Centrifugal Filter Unit (Merck Millipore, Kenilworth, NJ). The medium was concentrated and subjected to a final wash with 1×PBS before reconstituting to 1/60 of the original volume. To reduce extracellular vesicle batch variation, every five extracellular vesicle batches were pooled into a single batch for analysis and treatment. *Reference: Rodrigues-Junior, D. M. et al. Circulating extracellular vesicle-associated TGFβ3 modulates response to cytotoxic therapy in head and neck squamous cell carcinoma. Carcinogenesis 1-13 (2019). doi:10.1093/carcin/bgz148
Cells were seeded in 100 μl complete growth medium at a density of 1,000-3,000 cells/well in 96-well tissue culture plates. Cells were washed with 1×PBS to remove remaining medium residue prior treatment. […] Plates were incubated for 72 hours at 37° C. after which cell viability was assessed using CellTitre-Glo® Luminescent Assay according to the manufacturer's protocol (Promega, Madison, WI).

[1] = test system: NCC-HN1, NCC-HN120M and NCC-HN182M cells; test: Cell proliferation assay and IC50 determination, TKI and EV co-treatment, HNSCC cell line panel; type: cell-based, human
Method: To test the response of head and neck squamous cell carcinomas (HNSCC) cell lines to tyrosine kinase inhibitors (TKIs) in the presence of EGFR exosomal isoform D, three primary cell lines, namely NCC-HN1, NCC-HN120M and NCC-HN182M, were used. […] NCC-HN1, NCC-HN120M and NCC-HN182M cells were treated with eight tyrosine kinase inhibitors, each individually, in the presence of exosome (EV) derived from NCC-HN19 and NCC-HN137P cells.
Cells were seeded in 100 μl complete growth medium at a density of 1,000-3,000 cells/well in 96-well tissue culture plates. […] Plates were incubated for 72 hours at 37° C. after which cell viability was assessed using CellTitre-Glo® Luminescent Assay according to the manufacturer's protocol (Promega, Madison, WI).

[2] = Mouse body weight after afatinib and EV co-treatment; type: in vivo; conditions: daily oral afatinib with 72-hourly peri-tumoural EV injection
From the text: Arrow indicates commencement of daily oral afatinib administration with 72-hourly peri-tumoural extracellular vesicle (EV) injection. This confirms that the therapy delivered to the mice in FIG. 25 had minimal side effects/toxicity during the course of the experiment.

For `COc1cc2ncnc(Nc3ccc(F)c(Cl)c3)c2cc1OCCCN1CCOCC1` [gefitinib], the “response of cells to TKI without exosome” value (NCC-HN1 cells; no exosome treatment) was “normally resistant”.

For `COc1cc2ncnc(Nc3ccc(F)c(Cl)c3)c2cc1NC(=O)/C=C/CN1CCCCC1` [dacomitinib], the “sensitivity of HNSCC cells to the TKI on co-treatment with exosomes containing overexpressed EGFR isoform D” value ([1]; EV from 293T, FIG. 11H (NCC-HN1 and NCC-HN120M)) was “sensitized” and the “sensitivity of TKI-resistant cells to the TKI on application of EVs from sensitive cells” value ([1]; EV from HN19 and HN137P applied to HN1, HN120M, HN182M) was “sensitises these resistant cells”.

In the case of `O=C1NC(=NS(=O)(=O)c2cccc3ccccc23)S/C1=C\c1ccc(Br)cc1` [PitStop2], the “effect on the sensitising effect of isoform D containing EVs” value (NCC-HN1 cells; 1 μM PS2 with 293T pBob-IsoD EV) is reported as “reduces the sensitising effect of isoform D containing EVs”.

With `CN(C)C/C=C/C(=O)Nc1cc2c(Nc3ccc(F)c(Cl)c3)ncnc2cc1O[C@H]1CCOC1` [afatinib] the mouse body weight [2] was “no changes in mouse body weight”.
